Measurements published in patent US5225543A, “Receptors method for purification of G protein-linked” (priority 1991, dated 1993).

Key:
[1] = target: T1, SRIF receptor (GH4 C1 membranes) (Rattus norvegicus, UniProt P30680); test: Competitive radioligand binding vs [^125 I]Tyr11-S14 on GH4 C1 membranes (FIG. 4); settings: vs [^125 I]Tyr11-S14; 20 ug GH4 C1 membrane protein, 100,000 cpm (FIG. 4B)
T1 construct: GH4 C1 rat pituitary tumor cells; endogenous in cells; host or cells: GH4 C1 rat pituitary tumor cells (isolated membranes)
Experimental: Membrane Isolation--1-8 liter batches of cells at densities of 6-10×10^5 cells/ml are pelleted in conical bottom glass centrifuge bottles (600 or 800 ml; Bellco) at 1,000× g for 5 min. The supernatants are carefully poured off and the cells are resuspended in ice cold homogenization medium (1 mM Na-bicarbonate at pH 7.6, 1 mM EDTA and 1 mM EGTA) containing 0.7% (vol/vol) of the "100×4pase" protease inhibitor cocktail (see below). Twenty ml of homogenization medium is used for every liter of suspension culture. After 5 min. on ice, the hypotonically swollen cells are homogenized with 10 strokes of a tight fitting Dounce homogenizer (Kontes, type A pestle). The homogenate is centrifuged at 1,000× g for 10 min. and the supernatant is removed and kept on ice. The 1,000× g pellet containing residual intact cells, nuclei and DNA is washed by gently homogenizing with 4 strokes with a type B pestle in one half the original volume of homogenization medium and recentrifuging for 10 min. at 1,000× g. The final 1,000× g pellet consists mostly of DNA and is discarded. The 1,000× g supernatants are combined and centrifuged at 20,000× g for 30 min. The 20,000× g pellet is washed twice in 25 mM Tris (pH 7.4), with centrifugation for 25 min. at 20,000 2 g. Final membrane pellets are resuspended in 25 mM Tris buffer to concentrations of 4-10 mg membrane protein/ml. Then the 100× 4pase protease inhibitor cocktails are added to 1% of final volume and aliquots are frozen on dry ice. Membranes are stored at -90° C. until needed. Membrane protein is assayed with the Bradford dye binding assay (Bio-Rad).
Standard Binding Assays--Binding assays are done in a binding buffer containing 50 mM HEPES (pH 7.4), 0.5% BSA and 5 mM MgCl2. The standard assay for [^125 I]SRIF analog binding to GH4 CL membranes, done in 96 well microtiter plates (Dynatech Immulon II Removawell plates), is carried out as follows: 1. Radioligand is diluted in binding buffer+PMSF/Baci to the desired cpm per vol. of 50 μl and then 50 μl aliquots are added to the wells. For non-specific binding samples, 5 μl of 40 μM cold S14 is also added per well. […] Binding is initiated by adding 150 μl per well of membrane diluted to the desired concentration (10-30 ug membrane protein/well) in binding buffer+PMSF/Baci. Plates are then covered with Linbro mylar plate sealers (Flow Labs) and placed on a Dynatech Microshaker II and binding is allowed to proceed at room temperature for 1-2 hours. Binding is stopped by centrifuging the plate for 15 minutes at 2,000×g. The supernatants are dumped off and membrane pellets washed once by addition of 200 μl of ice cold binding buffer, brief shaking and recentrifugation. Finally the individual wells are placed in 12×75 mm tubes and counted in an LKB Gammamaster counter (78% efficiency). […]

[2] = target: T1, SRIF receptor (GH4 C1 membranes); test: Purification method as receptor assay: binding of biotinyl-S28 to GH4 C1 membranes (FIG. 10); settings: 10 nM B28 in binding step
Experimental: Soluble material is adsorbed to streptavidin-Sepharose for 4 hours and eluted with 100 uM GTP-gamma-S+100 uM EDTA+100 uM EGTA. Then the GTP-gamma-S eluates are incubated overnight with immobilized wheat germ agglutinin (to adsorb glycoproteins, including the receptor).
The WGA-agarose pellets are washed and then boiled in SDS polyacrylamide gel sample buffer (to melt the agarose and solubilize proteins). […] The proteins not bound to WGA are processed separately and also separated by SDS-PAGE (FIG. 10C).

streptavidin = target: T2, streptavidin (Streptomyces avidinii, UniProt P22629); test: Tracing of SRIF R:L complex with [^125 I]Bio-S28 during purification: binding to immobilized streptavidin (Table 4)
T2 construct: purchased Pierce Chemical Co
Experimental: 3. Adsorption of solubilized R:L complex to streptavidin. Immobilized streptavidin (streptavidin cross-linked to 6% beaded agarose, Pierce Chemical Co.; "SA-agarose") is washed in solubilization buffer and added to the solubilized membranes as 1/30 of the final volume. This mixture is incubated with constant stirring by end-over-end rotation for 4-5 hours at 4°-10° C. Then the mixture is applied to a column and the non-bound material is washed through. Binding of radioligand to SA-agarose is determined by comparing cpm in the 100,000×g supernatant with that in the column effluent after adsorption to SA-agarose. Finally, the column is washed with 12-15 column volumes of solubilization buffer+0.15% deoxycholate:lysolecithin+1/500 (vol/vol) 100×4pase.
(§1) A preparation of SRIF receptor is purified from 17 mg GH4 C1 pituitary cell membranes as described in "Methods: Receptor Purification". Some important features of this experiment are as follows: Two 17 mg samples of membranes are used. Both are incubated with 10^-8 M Bio-S28. However, one sample also receives 10^-5 M non-biotinyl S14 for 23 minutes before addition of any Bio-S28. This serves to block binding of Bio-S28 and creates a control to show non-specific binding of proteins to the streptavidin column. Also, each sample received 1.5×10^8 cpm of [^125 I]Bio-S28 as a tracer. This is added 2-3 minutes before the addition of cold Bio-S28. After a 1-hour binding step, the membranes are washed in binding buffer without BSA and solubilized in solubilization buffer containing 0.15% deoxycholate:lysolecithin and 0.2 mM MgCl2. Each 100,000×g supernatant (17 ml) is incubated with 0.6 ml of streptavidin-agarose for 4 hours at 4°-10° C. The SA-agarose is transferred to a 0.7 cm diameter column, washed and eluted with EDTA/EGTA/GTP-gamma-S as described ("Methods: Receptor Purification").
(§2) Radioligand is followed through the procedure to estimate solubilization of R:L complex and % initial binding of R:L complex to immobilized streptavidin.

[3] = target: T1, SRIF receptor (GH4 C1 membranes); test: Tracing of SRIF R:L complex with [^125 I]Bio-S28 during purification: membrane binding and solubilization (Table 4)
Experimental: 1. Binding of biotinyl-SRIF to GH4 C1 membranes. The binding step is carried out as described in Section 4 of "Receptor Binding Methods". Incubations are for 1 hour at room temperature. In the standard purification protocol, the binding incubations contain 10 nM […]/[^125 I]Bio-S28 is added as a tracer at levels of 5,000-100,000 cpm per mg of membrane protein. Control incubations contain 10 uM cold S14 to saturate the receptor with non-biotinylated ligand.
2. Solubilization of receptor:ligand complex. This is done as described ("Membrane Solubilization"), with 0.15% deoxycholate:lysolecithin in solubilization buffer containing 0.2 mM MgCl2, to obtain 100,000×g supernatants containing solubilized R:L complex.
as §1, §2

[4] = 10^-8 M Bio-S28 + 10^-5 M S14 (NSB)
[5] = 10^-8 M Bio-S28, [^125 I]Bio-S28 tracer, 4 hours
[6] = 10^-8 M Bio-S28, [^125 I]Bio-S28 tracer

T1 sequence (P30680 whole entry): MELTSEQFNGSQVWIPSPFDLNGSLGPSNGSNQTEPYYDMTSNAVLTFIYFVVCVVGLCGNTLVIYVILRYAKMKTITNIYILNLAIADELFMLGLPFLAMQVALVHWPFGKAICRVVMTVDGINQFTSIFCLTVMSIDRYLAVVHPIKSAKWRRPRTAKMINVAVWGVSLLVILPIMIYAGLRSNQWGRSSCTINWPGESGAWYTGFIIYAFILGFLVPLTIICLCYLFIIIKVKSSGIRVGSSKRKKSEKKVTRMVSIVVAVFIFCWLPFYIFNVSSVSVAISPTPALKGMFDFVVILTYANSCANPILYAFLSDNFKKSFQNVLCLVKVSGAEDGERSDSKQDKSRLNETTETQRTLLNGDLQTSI
T2 sequence (P22629 25-183): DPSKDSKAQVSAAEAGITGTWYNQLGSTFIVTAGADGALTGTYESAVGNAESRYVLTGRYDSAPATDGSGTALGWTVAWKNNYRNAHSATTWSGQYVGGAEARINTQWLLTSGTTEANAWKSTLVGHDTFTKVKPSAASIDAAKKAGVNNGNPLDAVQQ

## Biotinyl-NH-(Leu8, D-Trp22, Tyr25)SRIF28 [Bio-S28]
[1]
  IC50: 0.3 nM
[2]
  total specific binding at or near saturation: 1.8 pmol
streptavidin; [4]
  Solubilized CPM non-bound to streptavidin (%) (NSB): 15%
  Solubilized CPM non-bound to streptavidin (NSB): 1,054 CPM
streptavidin; [5]
  Solubilized CPM non-bound to streptavidin: 14,960 CPM
  Solubilized CPM non-bound to streptavidin (%): 28%
[3]; [4]
  CPM initially bound to membranes (NSB): 9,316 CPM
  CPM solubilized by deoxycholate:lysolecithin (%) (NSB): 73%
  CPM solubilized by deoxycholate:lysolecithin (NSB): 6,834 CPM
[3]; [6]
  CPM initially bound to membranes: 59,132 CPM
  CPM solubilized by deoxycholate:lysolecithin: 54,094 CPM
  CPM solubilized by deoxycholate:lysolecithin (%): 91%
